Test results: paper PMC10175918 (Communications Biology, 2023)
Like-named read-outs stand apart in the source and are kept apart here. Each block holds one compound with its values, some of them ahead of it.

Experiments:
348 GPCRs [1] = biological target: 348 GPCRs (Homo sapiens, UniProt P51681); assay: TGFα-shedding assay-based GPCR screening with chimeric Gα subunit proteins; type: cell-based; settings: 10µM, Favipiravir 100μM
348 GPCRs [2] = biological target: T1, 348 GPCRs (Homo sapiens, UniProt O15354); assay: as above; type: cell-based; settings: 10µM, Favipiravir 100μM
T1 construct: expressed in transfected cells; host or cells: HEK293A
T1 sequence (O15354 27-613): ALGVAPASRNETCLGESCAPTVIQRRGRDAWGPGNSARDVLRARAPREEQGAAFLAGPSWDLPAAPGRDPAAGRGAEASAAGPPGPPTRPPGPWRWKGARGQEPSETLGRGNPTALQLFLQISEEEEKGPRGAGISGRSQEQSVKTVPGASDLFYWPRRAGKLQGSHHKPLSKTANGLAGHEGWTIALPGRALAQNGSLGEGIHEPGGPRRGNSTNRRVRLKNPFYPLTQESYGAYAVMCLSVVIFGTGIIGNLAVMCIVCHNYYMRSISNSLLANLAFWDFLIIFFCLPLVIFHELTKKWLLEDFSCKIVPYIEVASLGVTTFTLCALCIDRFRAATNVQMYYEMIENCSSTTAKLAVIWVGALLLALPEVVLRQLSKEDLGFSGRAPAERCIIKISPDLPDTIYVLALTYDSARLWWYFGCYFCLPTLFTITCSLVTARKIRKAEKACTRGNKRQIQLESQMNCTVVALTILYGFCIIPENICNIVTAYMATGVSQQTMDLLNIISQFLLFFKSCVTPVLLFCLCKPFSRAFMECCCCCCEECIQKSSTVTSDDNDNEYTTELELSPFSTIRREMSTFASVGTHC

[3] = biological target: T2, lysophosphatidic acid receptor 4 (Homo sapiens, UniProt Q99677); assay: cell-based; design: species or system HEK293A; AP-TGFα shedding assay, transfected GPCR plus chimeric Gα mixture, AP release as % of TPA response; settings: HEK293-A
T2 construct: gene LPAR4
T2 sequence (Q99677 whole entry): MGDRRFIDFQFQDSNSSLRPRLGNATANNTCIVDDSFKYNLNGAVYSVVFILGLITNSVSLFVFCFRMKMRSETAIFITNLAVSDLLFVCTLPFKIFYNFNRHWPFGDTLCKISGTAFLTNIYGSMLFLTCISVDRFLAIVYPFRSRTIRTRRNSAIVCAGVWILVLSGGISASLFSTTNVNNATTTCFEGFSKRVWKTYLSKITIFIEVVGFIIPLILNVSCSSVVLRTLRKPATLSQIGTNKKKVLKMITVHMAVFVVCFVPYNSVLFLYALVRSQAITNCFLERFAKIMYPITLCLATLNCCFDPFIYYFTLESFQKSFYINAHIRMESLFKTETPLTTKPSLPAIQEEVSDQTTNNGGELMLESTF

[4] = biological target: T3, purinergic receptor P2Y, G-protein coupled, 1 (Homo sapiens, UniProt P47900); assay: cell-based; design: species or system HEK293A; AP-TGFα shedding assay, transfected GPCR plus chimeric Gα mixture, AP release as % of TPA response; settings: HEK293-A
T3 construct: gene P2RY1
T3 sequence (P47900 whole entry): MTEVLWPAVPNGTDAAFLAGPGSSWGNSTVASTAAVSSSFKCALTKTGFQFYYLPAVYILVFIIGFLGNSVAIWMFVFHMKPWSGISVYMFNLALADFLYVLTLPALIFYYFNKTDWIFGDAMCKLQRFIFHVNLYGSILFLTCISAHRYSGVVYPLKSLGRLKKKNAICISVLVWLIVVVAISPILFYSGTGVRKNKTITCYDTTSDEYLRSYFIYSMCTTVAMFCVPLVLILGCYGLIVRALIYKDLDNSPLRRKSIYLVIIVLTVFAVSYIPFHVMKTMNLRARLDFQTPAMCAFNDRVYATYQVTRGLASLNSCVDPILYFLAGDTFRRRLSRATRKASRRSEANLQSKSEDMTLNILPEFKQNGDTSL

[5] = biological target: T4, leukotriene B4 receptor 2 (Homo sapiens, UniProt Q9NPC1); assay: cell-based; design: species or system HEK293A; AP-TGFα shedding assay, transfected GPCR plus chimeric Gα mixture, AP release as % of TPA response; settings: HEK293-A
T4 construct: gene LTB4R2
T4 sequence (Q9NPC1 1-358): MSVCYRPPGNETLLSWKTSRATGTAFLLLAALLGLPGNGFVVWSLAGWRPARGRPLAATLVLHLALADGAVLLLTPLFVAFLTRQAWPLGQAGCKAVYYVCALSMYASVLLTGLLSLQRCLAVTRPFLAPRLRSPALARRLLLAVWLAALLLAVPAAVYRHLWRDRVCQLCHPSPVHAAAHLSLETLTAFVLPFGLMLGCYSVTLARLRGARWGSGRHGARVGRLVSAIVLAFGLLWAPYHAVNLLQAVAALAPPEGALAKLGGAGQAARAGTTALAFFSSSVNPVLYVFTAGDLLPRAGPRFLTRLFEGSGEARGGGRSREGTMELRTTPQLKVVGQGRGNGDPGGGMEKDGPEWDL

[6] = biological target: T5, relaxin/insulin-like family peptide receptor 2 (Homo sapiens, UniProt Q8WXD0); assay: cell-based; design: species or system HEK293A; AP-TGFα shedding assay, transfected GPCR plus chimeric Gα mixture, AP release as % of TPA response; settings: HEK293-A
T5 construct: gene RXFP2
T5 sequence (Q8WXD0 whole entry): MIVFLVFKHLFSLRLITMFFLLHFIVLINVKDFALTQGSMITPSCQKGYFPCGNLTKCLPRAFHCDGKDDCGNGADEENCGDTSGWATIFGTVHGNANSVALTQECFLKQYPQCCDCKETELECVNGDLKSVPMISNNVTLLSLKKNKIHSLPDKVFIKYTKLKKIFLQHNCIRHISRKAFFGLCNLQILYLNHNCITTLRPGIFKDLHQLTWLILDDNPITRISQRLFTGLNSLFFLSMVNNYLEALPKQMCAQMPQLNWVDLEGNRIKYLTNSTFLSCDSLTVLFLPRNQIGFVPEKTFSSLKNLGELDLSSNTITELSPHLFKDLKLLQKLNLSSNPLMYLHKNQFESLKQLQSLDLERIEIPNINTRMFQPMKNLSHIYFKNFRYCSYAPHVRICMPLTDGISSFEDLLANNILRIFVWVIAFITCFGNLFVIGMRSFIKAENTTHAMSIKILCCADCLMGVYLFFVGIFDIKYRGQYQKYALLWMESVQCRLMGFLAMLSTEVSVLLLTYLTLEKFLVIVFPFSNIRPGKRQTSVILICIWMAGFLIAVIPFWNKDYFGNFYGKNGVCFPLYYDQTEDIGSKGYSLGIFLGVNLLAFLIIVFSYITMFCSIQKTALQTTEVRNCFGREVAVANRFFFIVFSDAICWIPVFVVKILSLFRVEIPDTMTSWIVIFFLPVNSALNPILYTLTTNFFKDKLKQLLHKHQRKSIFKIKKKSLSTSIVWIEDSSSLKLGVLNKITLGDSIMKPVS

[7] = biological target: T6, 5-hydroxytryptamine receptor 1F (Homo sapiens, UniProt P30939); assay: cell-based; design: species or system HEK293A; AP-TGFα shedding assay, transfected GPCR plus chimeric Gα mixture, AP release as % of TPA response; settings: HEK293-A
T6 construct: gene HTR1F
T6 sequence (P30939 1-366): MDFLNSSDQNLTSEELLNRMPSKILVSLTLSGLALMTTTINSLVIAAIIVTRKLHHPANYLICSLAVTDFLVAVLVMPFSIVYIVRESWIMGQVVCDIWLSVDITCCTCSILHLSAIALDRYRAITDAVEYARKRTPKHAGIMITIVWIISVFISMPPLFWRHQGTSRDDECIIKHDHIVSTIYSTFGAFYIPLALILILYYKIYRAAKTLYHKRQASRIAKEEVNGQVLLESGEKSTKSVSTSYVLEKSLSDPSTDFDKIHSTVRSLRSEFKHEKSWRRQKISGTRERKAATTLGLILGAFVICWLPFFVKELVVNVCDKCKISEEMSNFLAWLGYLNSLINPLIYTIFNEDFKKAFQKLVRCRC

[8] = biological target: T7, relaxin/insulin-like family peptide receptor 4 (Homo sapiens, UniProt Q8TDU9); assay: cell-based; design: species or system HEK293A; AP-TGFα shedding assay, transfected GPCR plus chimeric Gα mixture, AP release as % of TPA response; settings: HEK293-A
T7 construct: gene RXFP4
T7 sequence (Q8TDU9 whole entry): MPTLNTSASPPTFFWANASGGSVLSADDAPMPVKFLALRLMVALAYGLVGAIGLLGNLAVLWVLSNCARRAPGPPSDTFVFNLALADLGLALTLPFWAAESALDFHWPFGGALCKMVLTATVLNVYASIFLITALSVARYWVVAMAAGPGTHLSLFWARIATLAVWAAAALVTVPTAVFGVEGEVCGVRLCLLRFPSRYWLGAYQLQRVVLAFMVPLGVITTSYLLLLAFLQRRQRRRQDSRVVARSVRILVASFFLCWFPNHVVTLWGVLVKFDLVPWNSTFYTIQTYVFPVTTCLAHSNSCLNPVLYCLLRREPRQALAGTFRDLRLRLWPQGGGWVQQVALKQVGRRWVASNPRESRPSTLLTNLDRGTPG

[9] = biological target: T8, chemokine (C-X3-C motif) receptor 1 (Homo sapiens, UniProt P49238); assay: cell-based; design: species or system HEK293A; AP-TGFα shedding assay, transfected GPCR plus chimeric Gα mixture, AP release as % of TPA response; settings: HEK293-A
T8 construct: gene CX3CR1
T8 sequence (P49238 1-355): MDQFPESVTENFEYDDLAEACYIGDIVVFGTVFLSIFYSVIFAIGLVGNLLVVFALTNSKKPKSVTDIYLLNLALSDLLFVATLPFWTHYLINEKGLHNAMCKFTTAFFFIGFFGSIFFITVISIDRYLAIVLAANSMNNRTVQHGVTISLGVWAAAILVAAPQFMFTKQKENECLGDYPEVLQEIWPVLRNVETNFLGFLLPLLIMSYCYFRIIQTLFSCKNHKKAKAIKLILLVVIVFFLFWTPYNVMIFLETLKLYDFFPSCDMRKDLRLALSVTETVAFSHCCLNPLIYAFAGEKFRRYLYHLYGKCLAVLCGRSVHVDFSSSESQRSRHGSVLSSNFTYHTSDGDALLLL

[10] = biological target: T9, G protein-coupled receptor 17 short (Homo sapiens, UniProt Q13304); assay: cell-based; design: species or system HEK293A; AP-TGFα shedding assay, transfected GPCR plus chimeric Gα mixture, AP release as % of TPA response; settings: HEK293-A
T9 construct: gene GPR17; short isoform
T9 sequence (Q13304 whole entry, canonical isoform): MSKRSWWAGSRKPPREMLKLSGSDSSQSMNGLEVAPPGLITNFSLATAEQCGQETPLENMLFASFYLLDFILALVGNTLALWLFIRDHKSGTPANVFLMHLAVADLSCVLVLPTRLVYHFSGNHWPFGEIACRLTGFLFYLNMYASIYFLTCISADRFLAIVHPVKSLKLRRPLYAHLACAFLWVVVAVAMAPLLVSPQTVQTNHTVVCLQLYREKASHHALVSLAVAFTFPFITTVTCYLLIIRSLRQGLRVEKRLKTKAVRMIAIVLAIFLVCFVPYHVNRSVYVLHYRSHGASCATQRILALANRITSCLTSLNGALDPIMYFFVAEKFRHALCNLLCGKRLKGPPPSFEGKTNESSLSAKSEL

[11] = CCR5, CCR5 (C-C motif chemokine receptor 5), read-out: % GPCR activation compared to TPA
[12] = GPR37 (G protein-coupled receptor 37), read-out: % GPCR activation compared to TPA
[13] = read-out: % GPCR activation of 10μM GS441524 compared to TPA
[14] = read-out: % GPCR activation of 100μM Favipiravir compared to TPA
[15] = read-out: % GPCR activation of 10µM Molnupiravir compared to TPA
[16] = CCR5, read-out: % GPCR activation compared to TPA, CCR5 (C-C motif chemokine receptor 5)
[17] = read-out: % GPCR activation compared to TPA, GPR37 (G protein-coupled receptor 37)
[18] = read-out: % GPCR activation of 10µM Remdesivir compared to TPA
[19] = read-out: % GPCR activation of 10μM Sofosbuvir compared to TPA

348 GPCRs (Homo sapiens, UniProt P51681), sequence (P51681 whole entry): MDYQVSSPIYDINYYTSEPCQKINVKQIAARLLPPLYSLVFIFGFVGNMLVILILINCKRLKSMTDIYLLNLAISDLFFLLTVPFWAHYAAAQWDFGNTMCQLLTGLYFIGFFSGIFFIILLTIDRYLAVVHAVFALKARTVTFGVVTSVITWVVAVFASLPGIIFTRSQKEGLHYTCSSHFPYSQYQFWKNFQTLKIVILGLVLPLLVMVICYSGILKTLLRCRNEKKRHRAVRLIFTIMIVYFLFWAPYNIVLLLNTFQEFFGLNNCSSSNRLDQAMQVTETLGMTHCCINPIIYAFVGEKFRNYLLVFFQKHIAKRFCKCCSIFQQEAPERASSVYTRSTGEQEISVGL

Structure (SMILES): CCC(CC)COC(=O)[C@H](C)N[P@](=O)(OC[C@H]1O[C@@](C#N)(c2ccc3c(N)ncnn23)[C@H](O)[C@@H]1O)Oc1ccccc1 [remdesivir]
activation at 10 µM (348 GPCRs [1]; [16]): 2.38%
activation at 10 µM (348 GPCRs [2]; [17]): -0.881%
activity at 10 µM [3, 18]: -0.0834%
activity at 10 µM [4, 18]: 11%
activity at 10 µM [5, 18]: -0.974%
activity at 10 µM [6, 18]: 0.369%
activity at 10 µM [7, 18]: -2.15%
activity at 10 µM [8, 18]: 0.997%
activity at 10 µM [9, 18]: 2.08%
activity at 10 µM [10, 18]: 2.96%

Structure (SMILES): CC(C)OC(=O)[C@H](C)N[P@](=O)(OC[C@H]1O[C@@H](n2ccc(=O)[nH]c2=O)[C@](C)(F)[C@@H]1O)Oc1ccccc1 [sofosbuvir]
activation at 10 µM (348 GPCRs [1]; [16]): -0.363%
activation at 10 µM (348 GPCRs [2]; [17]): -2.61%
activity at 10 µM [3, 19]: 3.13%
activity at 10 µM [4, 19]: -4.63%
activity at 10 µM [5, 19]: 1.86%
activity at 10 µM [6, 19]: -1.51%
activity at 10 µM [7, 19]: -0.816%
activity at 10 µM [8, 19]: -1.57%
activity at 10 µM [9, 19]: 0.247%
activity at 10 µM [10, 19]: 1.81%

Results, then the compound that gave them:

activation at 10 µM (348 GPCRs [1]; [11]): -0.436%
activation at 10 µM (348 GPCRs [2]; [12]): -2.53%
activity at 10 µM [3, 13]: 1.19%
activity at 10 µM [4, 13]: -0.459%
activity at 10 µM [5, 13]: -0.182%
activity at 10 µM [6, 13]: -1.3%
activity at 10 µM [7, 13]: 0.356%
activity at 10 µM [8, 13]: -0.338%
activity at 10 µM [9, 13]: -0.521%
activity at 10 µM [10, 13]: 2.36%
Structure (SMILES): N#C[C@@]1(c2ccc3c(N)ncnn23)O[C@H](CO)[C@@H](O)[C@H]1O [GS441524]

activation at 10 µM (348 GPCRs [1]; [11]): 1.19%
activation at 10 µM (348 GPCRs [2]; [12]): -0.655%
activity at 100 µM [3, 14]: -0.546%
activity at 100 µM [4, 14]: 0.43%
activity at 100 µM [5, 14]: -0.0275%
activity at 100 µM [6, 14]: -0.673%
activity at 100 µM [7, 14]: 1.63%
activity at 100 µM [8, 14]: 1.69%
activity at 100 µM [9, 14]: 0.0634%
activity at 100 µM [10, 14]: -0.501%
Structure (SMILES): NC(=O)c1nc(F)cnc1O [favipiravir, 6-fluoro-3-hydroxy-2-pyrazinecarboxamide]

activation at 10 µM (348 GPCRs [1]; [11]): -2.34%
activation at 10 µM (348 GPCRs [2]; [12]): -2.05%
activity at 10 µM [3, 15]: -0.213%
activity at 10 µM [4, 15]: -11.8%
activity at 10 µM [5, 15]: -0.206%
activity at 10 µM [6, 15]: -1.68%
activity at 10 µM [7, 15]: 0.719%
activity at 10 µM [8, 15]: -0.46%
activity at 10 µM [9, 15]: -0.579%
activity at 10 µM [10, 15]: 0.174%
Structure (SMILES): CC(C)C(=O)OC[C@H]1O[C@@H](n2ccc(NO)nc2=O)[C@H](O)[C@@H]1O [molnupiravir]
